Data: paper PMC11725774 (Cancer Research Communications, 2025)
Where two headings read alike, the source gives them in different places.

Experiments:
[1] = Tolerability in orthotopic AML models; assay type: in vivo; conditions: daily dosing at 30 mg/kg, all three orthotopic models
Text: ; Fig. 3A). The increase in the MOLM-13 model was from 37 to 75 days (P < 0.0001; Fig. 3B) and in the MOLM-14 model, it was from 17 to 65 days (Fig. 3C).

[2] = system: p-JAK1, p-JAK2, p-STAT3, p-STAT5 in MOLM-14 cells cocultured with HS-5 cells; experiment: HS-5 stromal coculture Western blot; assay type: cell-based, human; conditions: concentrations <1 μmol/L; MOLM-14 cocultured with HS-5
Experimental: Cells were treated as described in respective Results sections and then lysed with RIPA buffer. Western blot analyses were performed with antibodies capable of detecting both total and phosphorylated forms of each kinase purchased from commercial sources. Information on the antibodies used is provided in the Supplementary Materials section.
HS-5 cells were obtained from ATCC. The HS-5 stromal cells (5 × 10^5 cells/well) were seeded into six-well plates, and 24 hours later, MOLM-14 cells (1 × 10^6 cells/well) were seeded into the same plate and then cultured for 48 hours. Cultures were then exposed to test drugs for 2 hours, harvested, and lysates were prepared for Western blotting. For stimulation studies, MOLM-14 or KG-1a cells were seeded at 5.0 to 6.0 × 10^6 cells/well into six-well plates in 2 mL medium. Cells were stimulated with 500 μg/mL fibrinogen (Sigma-Aldrich, Catalog # F3879) for 1 hour at 37°C. Alternatively, they were treated with 10 μg/mL IgG (Invitrogen, Catalog # 31154) for 10 minutes on ice followed by IgG cross-linking with 1 μg/mL anti–human IgG antibody for 10 minutes on ice. After these incubations, the media were removed and the cells were washed with cold PBS, lysed, and analyzed by Western blotting.

[3] = system: AML cell lines expressing FLT3 ITD (MV-4-11, MOLM-13, and MOLM-14); experiment: Growth inhibition of AML cell lines; assay type: cell-based; conditions: Homo sapiens; range over MV-4-11, MOLM-13, MOLM-14
Experimental: MV-4-11 (CRL-9591), HS-5 (CRL-3611), and KG1a (CCL-246.1) cells were obtained from ATCC. MOLM-13 (ACC 554) and MOLM-14 (ACC 777) were obtained from DSMZ (Deutsche Sammlung von Mikroorganismen und Zellkulturen). MOLM-14 cells contain one WT FLT3 allele and one FLT3-ITD allele. MOLM-14 FLT3-ITD/F691 cells were prepared by transfection of MOLM-14 cells with a vector expressing the FLT3 TKD F691L mutation. MV-4-11 cells expressing NRAS^G12D were prepared by transduction with a lentiviral vector encoding the NRAS^G12D mutation. Assays using a panel of parental Ba/F3 into which an additional copy of either WT or a mutant form of FLT3 was introduced were performed at Kyinno Biotechnology Co., Ltd. All cell lines were short tandem repeat authenticated at ATCC or at DSMZ when originally obtained, and no further authentication was done after receipt of the cells in the laboratory.
Assays using Ba/F3 cells expressing WT and mutant forms of FLT3 were performed by Kyinno Biotechnology. The cells were cultured in the medium recommended by the source for each cell line. Growth inhibition assays were performed using either Cell Titer 96 Aqueous One Solution Cell Proliferation assay (Promega, # G3581) or CCK8 (Dojindo, # CK-04). […] IC50 values were determined from growth inhibition curves fitted using GraphPad Prism and a nonlinear regression model with sigmoidal dose response. […]

[4] = Plasma protein binding; assay type: in vitro ADME; conditions: mouse, rat, dog, and human plasma
[5] = molecular target: T1, TAK1 (Homo sapiens, UniProt O43318); experiment: Broad kinase inhibition screen, recombinant kinase; assay type: biochemical; conditions: broad kinase inhibition screens
T1 construct: purchased Thermo Fisher Scientific or Reaction Biology, Inc. (screening service)
Text: (§1) Data from these screens are available on request.

[6] = molecular target: T2, SYK (Homo sapiens, UniProt P43405); experiment: Broad kinase inhibition screen, recombinant kinase; assay type: biochemical; conditions: broad kinase inhibition screens
T2 construct: purchased Thermo Fisher Scientific or Reaction Biology, Inc. (screening service)
Text: as §1

[7] = system: TUS/R line 4 (MOLM-14); experiment: Growth inhibition of TUS-resistant subline; assay type: cell-based, human; conditions: Homo sapiens
[8] = system: TUS/R MOLM-14 cells; experiment: Growth inhibition of TUS-resistant sublines versus parental; assay type: cell-based, human; conditions: Homo sapiens, MOLM-14; read-out: IC50, cells with acquired resistance
[9] = Metabolism by liver microsomes; assay type: in vitro ADME, human
[10] = system: Ba/F3 cells FLT3 WT; experiment: Growth inhibition of Ba/F3 cells; assay type: cell-based, murine
Experimental: (§2) MV-4-11 cells expressing NRAS^G12D were prepared by transduction with a lentiviral vector encoding the NRAS^G12D mutation. Assays using a panel of parental Ba/F3 into which an additional copy of either WT or a mutant form of FLT3 was introduced were performed at Kyinno Biotechnology Co., Ltd. All cell lines were short tandem repeat authenticated at ATCC or at DSMZ when originally obtained, and no further authentication was done after receipt of the cells in the laboratory.
(§3) Assays using Ba/F3 cells expressing WT and mutant forms of FLT3 were performed by Kyinno Biotechnology. The cells were cultured in the medium recommended by the source for each cell line. Growth inhibition assays were performed using either Cell Titer 96 Aqueous One Solution Cell Proliferation assay (Promega, # G3581) or CCK8 (Dojindo, # CK-04). […] IC50 values were determined from growth inhibition curves fitted using GraphPad Prism and a nonlinear regression model with sigmoidal dose response. Unless otherwise indicated, data are presented as mean ± SEM.

[11] = system: Ba/F3 cells FLT3 D835Y; experiment: Growth inhibition of Ba/F3 cells; assay type: cell-based, murine; conditions: Mus musculus
Experimental: as §2, §3

[12] = system: Ba/F3 cells FLT3 ITD; experiment: Growth inhibition of Ba/F3 cells; assay type: cell-based, murine; conditions: Mus musculus
Experimental: as §2, §3

[13] = system: Ba/F3 cells FLT3 ITD/F691L; experiment: Growth inhibition of Ba/F3 cells; assay type: cell-based, murine; conditions: Mus musculus, BaF3
Experimental: as §2, §3

[14] = system: Ba/F3 cells FLT3 ITD/D835Y; experiment: Growth inhibition of Ba/F3 cells; assay type: cell-based, murine; conditions: Mus musculus, BaF3
Experimental: as §2, §3

[15] = molecular target: CYP2C9 (Homo sapiens, UniProt P11712); experiment: CYP inhibition; assay type: in vitro ADME
[16] = system: CYP3A; experiment: CYP inhibition; assay type: in vitro ADME; conditions: human

CYP2C9, sequence (P11712 whole entry): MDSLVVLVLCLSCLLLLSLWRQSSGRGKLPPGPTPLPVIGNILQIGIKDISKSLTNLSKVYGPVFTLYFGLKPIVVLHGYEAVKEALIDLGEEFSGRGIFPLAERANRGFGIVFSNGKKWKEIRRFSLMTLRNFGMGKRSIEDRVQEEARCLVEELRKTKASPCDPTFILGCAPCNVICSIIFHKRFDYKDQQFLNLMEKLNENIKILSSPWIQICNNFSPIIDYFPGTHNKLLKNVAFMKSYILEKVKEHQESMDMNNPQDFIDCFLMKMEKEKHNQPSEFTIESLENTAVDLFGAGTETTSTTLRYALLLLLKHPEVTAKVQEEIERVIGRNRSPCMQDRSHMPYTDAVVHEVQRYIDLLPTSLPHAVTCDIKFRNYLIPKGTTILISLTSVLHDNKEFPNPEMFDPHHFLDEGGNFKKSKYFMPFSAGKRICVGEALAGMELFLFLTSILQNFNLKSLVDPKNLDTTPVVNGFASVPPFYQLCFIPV
T1 sequence (O43318 1-303 limits assumed): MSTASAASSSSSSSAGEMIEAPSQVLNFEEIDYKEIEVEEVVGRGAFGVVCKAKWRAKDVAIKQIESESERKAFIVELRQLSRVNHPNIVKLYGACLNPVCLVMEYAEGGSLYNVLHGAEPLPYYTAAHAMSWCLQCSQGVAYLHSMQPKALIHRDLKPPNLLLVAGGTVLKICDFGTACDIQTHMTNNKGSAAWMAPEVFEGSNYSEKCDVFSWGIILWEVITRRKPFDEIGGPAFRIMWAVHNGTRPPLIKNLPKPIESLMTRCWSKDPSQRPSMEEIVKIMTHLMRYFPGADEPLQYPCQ
T1 sequence (Q15750 437-504 partner limits assumed): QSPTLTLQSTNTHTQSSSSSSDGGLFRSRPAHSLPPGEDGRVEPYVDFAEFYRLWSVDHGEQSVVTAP

Cc1ccc2c(-c3nc(Nc4cc(CN5C[C@@H](C)N[C@@H](C)C5)cc(C5CC5)c4)ncc3Cl)c[nH]c2c1 [TUS, Tuspetinib]
tolerability / weight loss [1]: well tolerated in mice with no significant weight loss | inhibition of p-JAK1, p-JAK2, p-STAT3, or p-STAT5 [2]: Neither TUS nor gilteritinib inhibited | GI50 [3]: 1.3 to 5.2 nM | Plasma protein binding [4]: high | IC50 [5]: 7 nM | IC50 [6]: 2.9 nM | GI50 ([7]; MOLM-14, read-out: GI50 (nM) TUS/R line 4, mean ± SEM (Supplementary Table 6)): 144 ± 31 nM | IC50 ([7]; MOLM-14, read-out: IC50 (nmol/L), Mean ± SEM, TUS/R line 4): 144 ± 31.5 nmol/L | IC50 [8]: 139 ± 38.6 nM | metabolism by human liver microsomes [9]: metabolized by human liver microsomes | GI50 ([10]; Ba/F3 FLT3 WT): < 9.1 nM | GI50 ([10]; Mus musculus, BaF3, Ba/F3 FLT3 WT, read-out: GI50): 9.1 nM | GI50 ([11]; BaF3, Ba/F3 FLT3 D835Y): < 9.1 nM | GI50 ([11]; BaF3, Ba/F3 FLT3 D835Y, mean ± SD, read-out: GI50): 7.3 ± 3.5 nM | GI50 ([12]; BaF3, Ba/F3 FLT3 ITD): < 9.1 nM | GI50 ([12]; BaF3, Ba/F3 FLT3 ITD, mean ± SD, read-out: GI50): 2.5 ± 0.4 nM | GI50 [13]: 56 nM | GI50 [14]: 16 nM | Ki [15]: < 1000 nM | Ki [16]: < 1000 nM
